Measured values from patent US20260022142A1, “MACROCYCLIC IMMUNOMODULATORS” (Bristol-Myers Squibb Company, priority 2022, published 2026).
pIC50: −log10 of the molar value. Bridge positions count the residues as written; N and C are the ends. Square brackets hold non-standard residues; d marks the D form. Peptide text beside a SMILES is read from it. * marks the point of attachment. ξ: configuration not given here. Phe(3-CF3) = N[C@@H](Cc1cccc(C(F)(F)F)c1)C(=O)O; Ala(morpholin-4-yl) = N[C@@H](CN1CCOCC1)C(=O)O; Phe(4-COOH) = N[C@@H](Cc1ccc(C(=O)O)cc1)C(=O)O; Bip = N[C@@H](Cc1ccc(-c2ccccc2)cc1)C(=O)O; NH(CH2)14COOH = O=C(O)CCCCCCCCCCCCCCN*; Phe(3-Me) = Cc1cccc(C[C@H](N)C(=O)O)c1; Val(3-OH) = CC(C)(O)[C@H](N)C(=O)O; 4Pal = N[C@@H](Cc1ccncc1)C(=O)O; 3Thi = N[C@@H](Cc1ccsc1)C(=O)O; Cha = N[C@@H](CC1CCCCC1)C(=O)O; NMeN = CN[C@@H](CC(N)=O)C(=O)O; Thr(3ξ) = CC(O)[C@H](N)C(=O)O; 12Ado = NCCCCCCCCCCCC(=O)O; Carboxymethyl = O=C(O)C*; Orn = NCCC[C@H](N)C(=O)O; Aun = NCCCCCCCCCCC(=O)O; Dab = NCC[C@H](N)C(=O)O; Dap = NC[C@H](N)C(=O)O; AEEA = NCCOCCOCC(=O)O; Ac3c = NC1(C(=O)O)CC1

What follows are compounds tested against T1, PD-1/PD-L1 interaction (PE-labeled human PD-L1-Ig binding to Jurkat cell line over-expressing human PD-1) (Homo sapiens, UniProt Q15116) (assay: Jurkat-PD-1 Cell Binding High-Content Screening Assay (CBA)). Conditions: Jurkat cell line over-expressing human PD-1; PE-labeled PD-L1-Ig 20 nM final; read-out: Jurkat hPD1-PDL1 IC50.
T1 construct: expressed in transfected cells; host or cells: Jurkat
T1 sequence (Q15116 25-288): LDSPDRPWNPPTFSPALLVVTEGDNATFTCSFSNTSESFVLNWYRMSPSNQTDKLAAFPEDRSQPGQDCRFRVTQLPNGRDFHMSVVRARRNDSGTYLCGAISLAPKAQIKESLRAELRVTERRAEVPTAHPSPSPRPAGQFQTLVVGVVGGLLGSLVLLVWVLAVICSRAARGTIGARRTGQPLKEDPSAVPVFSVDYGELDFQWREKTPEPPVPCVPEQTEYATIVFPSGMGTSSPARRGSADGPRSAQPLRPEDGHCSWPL
Type: cell-based
Outline: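 First, compound is added to PD-1-expressing Jurkat cells in serum-containing DMEM and left 2 h at 37° C. Next, PE-conjugated PD-L1-Ig is introduced at 20 nM final concentration for 1 hour. Finally, cells are fixed in 4% paraformaldehyde with Hoechst 33342, washed and imaged.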

SMILES | pIC50
CC(C)C[C@H]1NC(=O)[C@H](CCCN)NC(=O)[C@H](Cc2ccc(C(=O)O)cc2)NC(=O)[C@H](Cc2ccc(-c3ccccc3)cc2)NC(=O)[C@H](Cc2ccc(C(=O)O)cc2)NC(=O)[C@H](Cc2cccc(C(F)(F)F)c2)NC(=O)[C@H](CC(=O)O)NC(=O)[C@H](Cc2ccc(OCC(=O)O)cc2)NC(=O)[C@H](CN2CCOCC2)NC(=O)CSC[C@@H](C(=O)N[C@@H](CCN)C(=O)NCCCCCCCCCCCCCCC(=O)O)NC(=O)[C@H](CC(=O)O)NC(=O)[C@H](C(C)(C)O)NC(=O)[C@H](CC2CCCCC2)NC(=O)[C@H](CCN)NC1=O [Compound 2949] ({CH2CO}-[Ala(morpholin-4-yl)]Y(Carboxymethyl)D[Phe(3-CF3)][Phe(4-COOH)][Bip][Phe(4-COOH)][Orn][dL][Dab][Cha][Val(3-OH)]DC[Dab]-{NH(CH2)14COOH}; thioether N-14) | 6.52
Cc1cccc(C[C@@H]2NC(=O)[C@H](CC(=O)O)NC(=O)[C@H](Cc3ccc(OCC(=O)O)cc3)NC(=O)C3(CC3)NC(=O)CSC[C@@H](C(=O)N[C@@H](CCN)C(=O)NCCCCCCCCCCC(=O)O)NC(=O)[C@H](CO)NC(=O)[C@H](C(C)(C)O)NC(=O)[C@H](CC3CCCCC3)NC(=O)[C@H](CCN)NC(=O)[C@@H](CC(C)C)NC(=O)[C@H](CCCN)NC(=O)[C@H](Cc3ccc(OCC(=O)O)cc3)NC(=O)[C@H](Cc3ccc(-c4ccccc4)cc3)NC(=O)[C@H](Cc3ccc(OCC(=O)O)cc3)NC2=O)c1 [Compound 2180] ({CH2CO}-[Ac3c]Y(Carboxymethyl)D[Phe(3-Me)]Y(Carboxymethyl)[Bip]Y(Carboxymethyl)[Orn][dL][Dab][Cha][Val(3-OH)]SC[Dab][Aun]-OH; thioether N-14) | 6.92
Cc1cccc(C[C@@H]2NC(=O)[C@H](CC(=O)O)NC(=O)[C@H](Cc3ccc(OCC(=O)O)cc3)NC(=O)[C@H](Cc3ccncc3)NC(=O)CSC[C@@H](C(=O)N[C@@H](CCN)C(=O)NCCOCCOCC(=O)NCCCCCCCCCCC(=O)O)NC(=O)[C@H](CO)NC(=O)[C@H](C(C)(C)O)NC(=O)[C@H](CC3CCCCC3)NC(=O)[C@H](CCN)NC(=O)[C@@H](CC(C)C)NC(=O)[C@H](CCCN)NC(=O)[C@H](Cc3ccc(C(=O)O)cc3)NC(=O)[C@H](Cc3ccc(-c4ccccc4)cc3)NC(=O)[C@H](Cc3ccc(C(=O)O)cc3)NC2=O)c1 [Compound 2862] ({CH2CO}-[4Pal]Y(Carboxymethyl)D[Phe(3-Me)][Phe(4-COOH)][Bip][Phe(4-COOH)][Orn][dL][Dab][Cha][Val(3-OH)]SC[Dab][AEEA][Aun]-OH; thioether N-14) | 6.64
CC(C)C[C@H]1NC(=O)[C@H](CCCN)NC(=O)[C@H](C(C)C)NC(=O)[C@H](Cc2ccc(-c3ccccc3)cc2)NC(=O)[C@H](C(C)C)NC(=O)[C@H](Cc2c[nH]c3ccccc23)NC(=O)[C@H](CC(=O)O)NC(=O)[C@H](Cc2ccc(OCC(=O)O)cc2)NC(=O)[C@H](C(C)O)NC(=O)CSC[C@@H](C(=O)N[C@@H](CC(N)=O)C(=O)NCCOCCOCC(=O)N[C@@H](CCCN)C(=O)NCCCCCCCCCCC(=O)O)NC(=O)[C@H](C(C)O)NC(=O)[C@H](C(C)C)NC(=O)[C@H](CC2CCCCC2)NC(=O)[C@H](CCN)NC1=O (stereo partly drawn) [Compound 3031] ({CH2CO}-[Thr(3ξ)]Y(Carboxymethyl)DWV[Bip]V[Orn][dL][Dab][Cha]V[Thr(3ξ)]CN[AEEA][Orn][Aun]-OH; thioether N-14) | 8.47
CC(C)C[C@H]1NC(=O)[C@H](CCCN)NC(=O)[C@H](Cc2ccc(O)cc2)NC(=O)[C@H](Cc2ccc(-c3ccccc3)cc2)NC(=O)[C@H](C(C)C)NC(=O)[C@H](Cc2c[nH]c3ccccc23)NC(=O)[C@H](CC(=O)O)NC(=O)[C@H](Cc2ccc(OCC(=O)O)cc2)NC(=O)[C@H](Cc2ccncc2)NC(=O)CSC[C@@H](C(=O)N[C@@H](CCN)C(=O)NCCOCCOCC(=O)NCCCCCCCCCCC(=O)O)NC(=O)[C@H](CCCN)NC(=O)[C@H](C(C)C)NC(=O)[C@H](CC2CCCCC2)NC(=O)[C@H](CCN)NC1=O [Compound 2701] ({CH2CO}-[4Pal]Y(Carboxymethyl)DWV[Bip]Y[Orn][dL][Dab][Cha]V[Orn]C[Dab][AEEA][Aun]-OH; thioether N-14) | 8.17
Cc1cccc(C[C@@H]2NC(=O)[C@H](CC(=O)O)NC(=O)[C@H](Cc3ccc(OCC(=O)O)cc3)NC(=O)[C@H](CN)NC(=O)CSC[C@@H](C(=O)N[C@@H](C)C(=O)N[C@@H](CCCN)C(=O)N[C@H](CO)C(=O)NCCCCCCCCCCC(=O)O)NC(=O)[C@H]([C@@H](C)O)NC(=O)[C@H](C(C)C)NC(=O)[C@H](CC3CCCCC3)NC(=O)[C@H](CCN)NC(=O)[C@@H](CC(C)C)NC(=O)[C@H](CCCN)NC(=O)[C@H](CCCNC(=N)N)NC(=O)[C@H](Cc3ccc(-c4ccccc4)cc3)NC(=O)[C@H](C(C)C)NC2=O)c1 [Compound 2016] ({CH2CO}-[Dap]Y(Carboxymethyl)D[Phe(3-Me)]V[Bip]R[Orn][dL][Dab][Cha]VTCA[Orn][dS][Aun]-OH; thioether N-14) | 7.75
Cc1cccc(C[C@@H]2NC(=O)[C@H](CC(=O)O)NC(=O)[C@H](Cc3ccc(OCC(=O)O)cc3)NC(=O)[C@H](CN)NC(=O)CNC[C@@H](C(=O)N[C@@H](CCN)C(=O)NCCCCCCCCCCC(=O)O)NC(=O)[C@H]([C@@H](C)O)NC(=O)[C@H](C(C)C)NC(=O)[C@H](CC3CCCCC3)NC(=O)[C@H](CCN)NC(=O)[C@@H](CC(C)C)NC(=O)[C@H](CCCN)NC(=O)[C@H](CCCNC(N)=O)NC(=O)[C@H](Cc3ccc(-c4ccccc4)cc3)NC(=O)[C@H](C(C)C)NC2=O)c1 [Compound 2160] | 7.37
CC(C)C[C@H]1NC(=O)[C@H](CCCN)NC(=O)[C@H](C(C)C)NC(=O)[C@H](Cc2ccc(-c3ccccc3)cc2)NC(=O)[C@H](C(C)C)NC(=O)[C@H](Cc2c[nH]c3ccccc23)NC(=O)[C@H](CC(=O)O)NC(=O)[C@H](Cc2ccc(OCC(=O)O)cc2)NC(=O)[C@H](CN)NC(=O)CSC[C@@H](C(=O)N[C@@H](CC(=O)O)C(=O)NCC(=O)NCCCCCCCCCCC(=O)O)NC(=O)[C@H]([C@@H](C)O)NC(=O)[C@H](C(C)C)NC(=O)[C@H](CC2CCCCC2)NC(=O)[C@H](Cc2cnc[nH]2)NC1=O [Compound 1092] ({CH2CO}-[Dap]Y(Carboxymethyl)DWV[Bip]V[Orn][dL]H[Cha]VTCDG[Aun]-OH; thioether N-14) | 7.43

More lines, now with the values ahead:

pIC50 | SMILES
7.79 | CC(C)C[C@H]1NC(=O)[C@H](CCCN)NC(=O)[C@H](C(C)C)NC(=O)[C@H](Cc2ccc(-c3ccccc3)cc2)NC(=O)[C@H](C(C)C)NC(=O)[C@H](Cc2c[nH]c3ccccc23)NC(=O)[C@H](CC(=O)O)NC(=O)[C@H](Cc2ccc(OCC(=O)O)cc2)NC(=O)[C@H](Cc2ccc(OCC(=O)O)cc2)NC(=O)CSC[C@@H](C(=O)NCC(=O)NCCOCCOCC(=O)N[C@@H](CCCN)C(=O)NCCCCCCCCCCCC(=O)O)NC(=O)[C@H](CO)NC(=O)[C@H](C(C)C)NC(=O)[C@H](CC2CCCCC2)NC(=O)[C@H](CCN)NC1=O [Compound 3179] ({CH2CO}-Y(Carboxymethyl)Y(Carboxymethyl)DWV[Bip]V[Orn][dL][Dab][Cha]VSCG[AEEA][Orn][12Ado]-OH; thioether N-14)
7.16 | Cc1cccc(C[C@@H]2NC(=O)[C@H](CC(=O)O)NC(=O)[C@H](Cc3ccc(OCC(=O)O)cc3)NC(=O)[C@H](CN)NC(=O)CSC[C@@H](C(=O)N[C@@H](CCN)C(=O)NCCCCCCCCCCCCC(=O)O)NC(=O)[C@H](C(C)O)NC(=O)[C@H](C(C)C)NC(=O)[C@H](CC3CCCCC3)NC(=O)[C@H](CCN)NC(=O)[C@@H](CC(C)C)NC(=O)[C@H](CCCN)NC(=O)[C@H](CCCNC(N)=O)NC(=O)[C@H](Cc3ccc(-c4ccccc4)cc3)NC(=O)[C@H](C(C)C)NC2=O)c1 (mixture of isomers) [Compound 3126]
7.74 | CC(C)C[C@H]1NC(=O)[C@H](CCCN)NC(=O)[C@H](C(C)C)NC(=O)[C@H](Cc2ccc(-c3ccccc3)cc2)NC(=O)[C@H](C(C)C)NC(=O)[C@H](Cc2c[nH]c3ccccc23)NC(=O)[C@H](CC(=O)O)NC(=O)[C@H](Cc2ccc(OCC(=O)O)cc2)NC(=O)[C@H](Cc2ccsc2)NC(=O)CSC[C@@H](C(=O)NCCOCCOCC(=O)N[C@@H](CCCN)C(=O)NCCCCCCCCCCC(=O)O)NC(=O)[C@H](C(C)O)NC(=O)[C@H](C(C)C)NC(=O)[C@H](CC2CCCCC2)NC(=O)[C@H](CCN)NC1=O (stereo partly drawn) [Compound 3211] ({CH2CO}-[3Thi]Y(Carboxymethyl)DWV[Bip]V[Orn][dL][Dab][Cha]V[Thr(3ξ)]C[AEEA][Orn][Aun]-OH; thioether N-14)
7.43 | Cc1cccc(C[C@@H]2NC(=O)[C@H](CC(=O)O)NC(=O)[C@H](Cc3ccc(OCC(=O)O)cc3)NC(=O)[C@H](C(C)O)NC(=O)CSC[C@@H](C(=O)N(C)[C@@H](CC(N)=O)C(=O)NCCOCCOCC(=O)NCCCCCCCCCCC(=O)O)NC(=O)[C@H](CCCN)NC(=O)[C@H](C(C)C)NC(=O)[C@H](CC3CCCCC3)NC(=O)[C@H](CCN)NC(=O)[C@@H](CC(C)C)NC(=O)[C@H](CCN)NC(=O)[C@H](C(C)C)NC(=O)[C@H](Cc3ccc(-c4ccccc4)cc3)NC(=O)[C@H](C(C)C)NC2=O)c1 (stereo partly drawn) [Compound 3322] ({CH2CO}-[Thr(3ξ)]Y(Carboxymethyl)D[Phe(3-Me)]V[Bip]V[Dab][dL][Dab][Cha]V[Orn]C[NMeN][AEEA][Aun]-OH; thioether N-14)
7.51 | CC(=O)NCCCC[C@@H]1NC(=O)CSC[C@@H](C(=O)N[C@@H](CCCN)C(=O)N[C@@H](CO)C(=O)NCCCCCCCCCCCC(=O)O)NC(=O)[C@H](CO)NC(=O)[C@H](C(C)C)NC(=O)[C@H](CC2CCCCC2)NC(=O)[C@H](CCCNC(=N)N)NC(=O)[C@@H](CC(C)C)NC(=O)[C@H](CCCN)NC(=O)[C@H](CCCNC(=N)N)NC(=O)[C@H](Cc2ccc(-c3ccccc3)cc2)NC(=O)[C@H](C(C)C)NC(=O)[C@H](Cc2cccc(C)c2)NC(=O)[C@H](CC(=O)O)NC(=O)[C@H](Cc2ccc(OCC(=O)O)cc2)NC1=O [Compound 3577] ({CH2CO}-K(Ac)Y(Carboxymethyl)D[Phe(3-Me)]V[Bip]R[Orn][dL]R[Cha]VSC[Orn]S[12Ado]-OH; thioether N-14)
